# Source: paper PMC12689286, “Enhanced therapeutics of cabazitaxel via polycarboxylate conjugation: improved solubility, safety, and antitumor efficacy” (Frontiers in Immunology, 2025)
# Assays:
# [1] = MCF-7 xenograft model, survival; format: in vivo, BALB/c nude mice; conditions: MCF-7 model, 9.6 μmol/kg, n=6
# Description: All animal experiments were conducted in accordance with protocols approved by the Institutional Animal Care and Use Committee of Peking Union Medical College. Male BALB/c nude mice (6–8 weeks old) and female KM mice (6–8 weeks old) were purchased from Charles River Laboratories (Beijing, China) and maintained under specific pathogen-free conditions.
# MCF-7 Breast Cancer Model: Female BALB/c nude mice bearing MCF-7 xenografts (2×10^6 cells/mouse) were randomized into treatment groups as described above, with an adjusted dose of 9.6 μmol/kg for all CTX formulations.
# thymus = experiment: Thymic toxicity in H22 tumor-bearing mice (thymus weight, thymocyte apoptosis); format: in vivo, KM mice
# Description: H22 hepatoma model: Female KM mice were subcutaneously implanted with H22 cells (2×10^6 cells/mouse) and assigned to six groups: (a) Vehicle control; (b) CTX (9.6 μmol/kg in 5% glucose with 2.5% ethanol/2.5% Tween 80); (c) CTX-TTHA (9.6 μmol/kg in saline); (d) CTX-DTPA (9.6 μmol/kg in saline); (e) CTX-TTHA (19.1 μmol/kg in saline); (f) CTX-DTPA (19.1 μmol/kg in saline).
# Gently mix 1×10^6 thymocytes with FITC Anexin V (5 μl) and PI (10 μl), and incubate in the dark for 15 minutes, RT. Analyze by flow cytometry. Thymocytes were stained with anti-mouse CD3e cyanine 5.5 (eBioscience, 85-45-0031-82), anti-CD4 PE (eBioscience, 85-12-0042-82), anti-CD8a FITC (4°C 30 min) and detected by flow cytometry.
# Excretion (urine, feces) = format: in vivo; conditions: SD rats, 6 μmol/kg iv
# Description: Male and female SD rats (200–220 g) received intravenous injections of CTX or CTX-DTPA (6 μmol/kg). […] Blood samples were collected at 5 min to 24 h post-dose. Tissues (heart, liver, spleen, lung, kidney, thymus) and excreta were collected at 15 min, 2 h, 4 h, and 12 h. Plasma and tissue samples were processed by liquid-liquid extraction with n-butanol and analyzed via LC-MS/MS (Agilent Poroshell 120 EC-C18 column; 0.05% formic acid/acetonitrile gradient). Pharmacokinetic parameters were calculated using DAS 2.0 via non-compartmental analysis.
# H460 = experiment: MTS cytotoxicity, H460; format: cell-based; conditions: Homo sapiens, NCI-H460
# Description: (§1) Human cancer cell lines were cultured in basic medium (10% fetal bovine serum (FBS)+1% double antibody solution) (Biological Industries) at 37°C in a 5% CO2 incubator. Effects of CTXs on cell proliferation and viability were measured by an MTS (Promega Corporation) assay. Absorbance values at 490 nm were measured using a microplate reader (Thermo Scientific, Varioskan Flash) ([22]).
# DU145 cells = experiment: Cell cycle arrest (PI, flow cytometry); format: cell-based, human; conditions: 24 h
# Description: Cells were incubated with drugs for 24 h. Fixed cells were incubated with RNase A and stained with propidium iodide (PI). DNA content was determined in a flow cytometer (BD FACS CaliburTM Flow Cytometer, USA) ([23]).
# Tissue distribution = conditions: for concentration at 15 min / concentration at 2 h / concentration at 4 h / concentration at 12 h: both, SD, rat, iv, 6 μmol/kg
# Description: Male and female SD rats (200–220 g) received intravenous injections of CTX or CTX-DTPA (6 μmol/kg). CTX was dissolved in 2.5% Tween 80/2.5% EtOH/saline, while CTX-DTPA used saline alone. Blood samples were collected at 5 min to 24 h post-dose. Tissues (heart, liver, spleen, lung, kidney, thymus) and excreta were collected at 15 min, 2 h, 4 h, and 12 h. Plasma and tissue samples were processed by liquid-liquid extraction with n-butanol and analyzed via LC-MS/MS (Agilent Poroshell 120 EC-C18 column; 0.05% formic acid/acetonitrile gradient). Pharmacokinetic parameters were calculated using DAS 2.0 via non-compartmental analysis.
# LN229 = experiment: MTS cytotoxicity, LN229; format: cell-based; conditions: Homo sapiens, LN-229
# Description: as §1
# H520 = experiment: MTS cytotoxicity, H520; format: cell-based; conditions: Homo sapiens, NCI-H520
# Description: as §1
# L-02 = experiment: MTS cytotoxicity, L-02 (non-tumor); format: cell-based; conditions: Homo sapiens, L02, L-02 non-tumor cell line
# Description: as §1
# DU145 = experiment: MTS cytotoxicity, DU145; format: cell-based; conditions: Homo sapiens, DU-145
# Description: as §1
# tubulin = target: T1, tubulin (Sus scrofa, UniProt P02554); experiment: Purified tubulin polymerization; format: biochemical; conditions: purified tubulin 3 mg/ml, 37°C
# T1 construct: purchased Cytoskeleton BK006P
# T1 sequence (P02554 whole entry): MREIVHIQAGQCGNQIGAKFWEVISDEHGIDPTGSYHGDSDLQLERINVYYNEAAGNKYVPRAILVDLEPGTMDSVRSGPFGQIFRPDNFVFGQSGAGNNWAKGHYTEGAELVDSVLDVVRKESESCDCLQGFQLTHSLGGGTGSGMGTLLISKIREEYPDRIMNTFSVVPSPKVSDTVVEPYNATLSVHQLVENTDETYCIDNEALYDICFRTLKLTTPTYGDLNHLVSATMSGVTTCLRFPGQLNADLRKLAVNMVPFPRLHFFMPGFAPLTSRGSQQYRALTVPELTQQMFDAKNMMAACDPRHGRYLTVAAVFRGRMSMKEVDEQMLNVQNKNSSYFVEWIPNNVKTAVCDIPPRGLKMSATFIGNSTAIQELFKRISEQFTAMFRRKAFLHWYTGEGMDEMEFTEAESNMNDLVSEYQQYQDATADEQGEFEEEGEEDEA
# T1 sequence (P02550 whole entry partner): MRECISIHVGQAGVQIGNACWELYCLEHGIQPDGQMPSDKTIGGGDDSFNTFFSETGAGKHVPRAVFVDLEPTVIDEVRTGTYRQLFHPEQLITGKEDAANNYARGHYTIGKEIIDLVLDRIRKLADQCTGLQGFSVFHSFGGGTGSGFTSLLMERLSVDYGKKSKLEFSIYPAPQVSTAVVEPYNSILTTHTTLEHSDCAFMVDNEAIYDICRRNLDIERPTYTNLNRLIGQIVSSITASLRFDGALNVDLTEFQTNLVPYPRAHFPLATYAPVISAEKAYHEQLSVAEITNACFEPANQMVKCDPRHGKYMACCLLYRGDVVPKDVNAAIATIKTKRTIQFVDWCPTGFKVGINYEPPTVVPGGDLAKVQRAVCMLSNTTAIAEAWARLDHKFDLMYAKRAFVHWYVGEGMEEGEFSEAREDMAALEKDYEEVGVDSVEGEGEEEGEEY
# Description: A tubulin polymerization assay kit (Cytoskeleton, BK006P) was used. Briefly, 10 μl of CTXs with a concentration of 100 μM in the general tubulin buffer and 100 μl of tubulin (3 mg/ml) in TP buffer were added on ice. The 96-well plate was immediately placed in a microplate reader at 37°C.
# [2] = system: rat red blood cells (RBCs); experiment: Hemolysis test; format: cell-based, SD rats; conditions: vs unmodified CTX
# Description: The hemolytic potential of CTX formulations was evaluated using rat red blood cells (RBCs). Briefly, whole blood was collected from the abdominal aorta of anesthetized SD rats into ACD anticoagulant (blood:ACD = 1:4, v/v). The blood was diluted with normal saline (4:5, v/v) and centrifuged at 450 g for 10 min. The RBC pellet was washed three times with normal saline until the supernatant was clear. The washed RBCs were then resuspended in normal saline to prepare a 2% (v/v) suspension.
# For the assay, 500 μL of the 2% RBC suspension was mixed with an equal volume of serially diluted drugs or controls in 1.5 mL tubes. The controls included: Negative control (0% hemolysis): normal saline. Positive control (100% hemolysis): distilled water. Solvent control: the vehicle for unmodified CTX (2.5% Tween 80 + 2.5% anhydrous ethanol + 95% normal saline). The mixtures were incubated at 37 °C for 1.5 h and then centrifuged at 450 g for 5 min. Subsequently, 150 μL of the supernatant from each tube was transferred to a 96-well plate, and the absorbance at 545 nm (OD545) was measured using a microplate reader. The percentage of hemolysis was calculated using the following formula: Hemolysis (%) = [(ODsample - ODnegative control)/(ODpositive control - ODnegative control)] × 100.
compound,measurement,setting,value
"CO[C@H]1C(=O)[C@]2(C)[C@@H](OC)C[C@H]3OC[C@@]3(OC(C)=O)[C@H]2[C@H](OC(=O)c2ccccc2)[C@]2(O)C[C@H](OC(=O)[C@H](O)[C@@H](NC(=O)OC(C)(C)C)c3ccccc3)C(C)=C1C2(C)C [CTX, Cabazitaxel]",survival,[1],83.3%
same,thymic weight relative to normal (thymic atrophy),thymus,31 % of normal weight
same,thymocyte apoptosis rate,thymus; Annexin V/PI flow cytometry,66.8%
same,total excretion of administered dose,"Excretion (urine, feces); in 24 h",< 1 % of dose
same,IC50,H460,2.4 ± 1.3 nM
same,cells arrested in G2/M,"DU145 cells; DU145, 1 nM",16.5 ± 0.7%
same,cells arrested in G2/M,"DU145 cells; DU145, 25 nM",65.5 ± 19.9%
same,concentration at 15 min,Tissue distribution; heart,43.2 ± 12.9 ng/g
same,concentration at 2 h,Tissue distribution; heart,24.6 ± 2.33 ng/g
same,concentration at 4 h,Tissue distribution; heart,16 ± 1.91 ng/g
same,concentration at 12 h,Tissue distribution; heart,12.6 ± 2.69 ng/g
same,concentration at 15 min,Tissue distribution; kidney,550 ± 12 ng/g
same,concentration at 2 h,Tissue distribution; kidney,313 ± 47.5 ng/g
same,concentration at 4 h,Tissue distribution; kidney,308 ± 41.5 ng/g
same,concentration at 12 h,Tissue distribution; kidney,218 ± 15.9 ng/g
same,concentration at 15 min,Tissue distribution; liver,149 ± 7.27 ng/g
same,concentration at 2 h,Tissue distribution; liver,78.7 ± 10.6 ng/g
same,concentration at 4 h,Tissue distribution; liver,48.7 ± 11.5 ng/g
same,concentration at 12 h,Tissue distribution; liver,29.3 ± 11.5 ng/g
same,concentration at 15 min,Tissue distribution; lung,133 ± 15 ng/g
same,concentration at 2 h,Tissue distribution; lung,117 ± 4.61 ng/g
same,concentration at 4 h,Tissue distribution; lung,106.8 ± 0.42 ng/g
same,concentration at 12 h,Tissue distribution; lung,79 ± 30.9 ng/g
same,concentration at 15 min,Tissue distribution; spleen,250 ± 38.3 ng/g
same,concentration at 2 h,Tissue distribution; spleen,160 ± 2.24 ng/g
same,concentration at 4 h,Tissue distribution; spleen,113 ± 21 ng/g
same,concentration at 12 h,Tissue distribution; spleen,54 ± 8.47 ng/g
same,concentration at 15 min,Tissue distribution; thymus,87.8 ± 23.5 ng/g
same,concentration at 2 h,Tissue distribution; thymus,129 ± 50 ng/g
same,concentration at 4 h,Tissue distribution; thymus,110 ± 41.8 ng/g
same,concentration at 12 h,Tissue distribution; thymus,67.2 ± 4.15 ng/g
same,IC50,LN229,8.5 ± 2.3 nM
same,IC50,H520,1.5 ± 0.7 nM
same,IC50,L-02,7.8 ± 1.5 nM
same,IC50,DU145,6.1 ± 2.4 nM
COC1C(=O)C2(C)C(OC)CC3OCC3(OC(C)=O)C2C(OC(=O)c2ccccc2)C2(O)CC(OC(=O)C(OC(=O)CN(CCN(CCN(CC(=O)O)CC(=O)O)CC(=O)O)CC(=O)O)C(NC(=O)OC(C)(C)C)c3ccccc3)C(C)=C1C2(C)C (stereo not drawn) [CTX-DTPA],urinary excretion of intact CTX-DTPA,"Excretion (urine, feces); cumulative",2191.14 ± 853.66 µg/kg
same,renal excretion,"Excretion (urine, feces); within 24 hours",39.8 ± 12.7%
same,IC50,H460,2.4 ± 1.1 nM
same,cells arrested in G2/M,"DU145 cells; DU145, 1 nM",16.4 ± 1.0%
same,cells arrested in G2/M,"DU145 cells; DU145, 25 nM",58.9 ± 16.1%
same,concentration at 15 min,"Tissue distribution; in vivo, tissue concentration, spleen, 15 min, SD rats 6 μmol/kg iv, dosed compound",0.39 ± 0.04 ng/g
same,concentration at 15 min,"Tissue distribution; in vivo, tissue concentration, thymus, 15 min, SD rats 6 μmol/kg iv, dosed compound",0.62 ± 0.05 ng/g
same,tissue concentration,"Tissue distribution; heart, 15 min, SD rats 6 μmol/kg iv, dosed compound",* 0.27 ± 0.04 μg/kg
same,tissue concentration,"Tissue distribution; heart, 2 h, SD rats 6 μmol/kg iv, dosed compound",*** 0.07 ± 0.03 μg/kg
same,tissue concentration,"Tissue distribution; heart, 4 h, SD rats 6 μmol/kg iv, dosed compound",*** 0.04 ± 0.00 μg/kg
same,tissue concentration,"Tissue distribution; heart, 12 h, SD rats 6 μmol/kg iv, dosed compound",** 0.06 ± 0.03 μg/kg
same,tissue concentration,"Tissue distribution; kidney, 15 min, SD rats 6 μmol/kg iv, dosed compound",**** 41.08 ± 9.73 μg/kg
same,tissue concentration,"Tissue distribution; kidney, 2 h, SD rats 6 μmol/kg iv, dosed compound",** 4.96 ± 1.67 μg/kg
same,tissue concentration,"Tissue distribution; kidney, 4 h, SD rats 6 μmol/kg iv, dosed compound",*** 1.55 ± 0.31 μg/kg
same,tissue concentration,"Tissue distribution; kidney, 12 h, SD rats 6 μmol/kg iv, dosed compound",**** 1.36 ± 0.84 μg/kg
same,tissue concentration,"Tissue distribution; liver, 15 min, SD rats 6 μmol/kg iv, dosed compound",*** 37.74 ± 16.89 μg/kg
same,tissue concentration,"Tissue distribution; liver, 2 h, SD rats 6 μmol/kg iv, dosed compound",** 7.21 ± 1.30 μg/kg
same,tissue concentration,"Tissue distribution; liver, 4 h, SD rats 6 μmol/kg iv, dosed compound",* 6.74 ± 5.04 μg/kg
same,tissue concentration,"Tissue distribution; liver, 12 h, SD rats 6 μmol/kg iv, dosed compound",* 0.65 ± 0.42 μg/kg
same,tissue concentration,"Tissue distribution; lung, 15 min, SD rats 6 μmol/kg iv, dosed compound",*** 2.36 ± 1.29 μg/kg
same,tissue concentration,"Tissue distribution; lung, 2 h, SD rats 6 μmol/kg iv, dosed compound",**** 0.48 ± 0.50 μg/kg
same,tissue concentration,"Tissue distribution; lung, 4 h, SD rats 6 μmol/kg iv, dosed compound",**** 0.13 ± 0.01 μg/kg
same,tissue concentration,"Tissue distribution; lung, 12 h, SD rats 6 μmol/kg iv, dosed compound",* 1.10 ± 0.45 μg/kg
same,tissue concentration,"Tissue distribution; spleen, 15 min, SD rats 6 μmol/kg iv, dosed compound",*** 0.39 ± 0.04 μg/kg
same,tissue concentration,"Tissue distribution; spleen, 2 h, SD rats 6 μmol/kg iv, dosed compound",**** 0.09 ± 0.03 μg/kg
same,tissue concentration,"Tissue distribution; spleen, 4 h, SD rats 6 μmol/kg iv, dosed compound",** 0.05 ± 0.02 μg/kg
same,tissue concentration,"Tissue distribution; spleen, 12 h, SD rats 6 μmol/kg iv, dosed compound",** 0.05 ± 0.03 μg/kg
same,tissue concentration,"Tissue distribution; thymus, 15 min, SD rats 6 μmol/kg iv, dosed compound",** 0.62 ± 0.05 μg/kg
same,tissue concentration,"Tissue distribution; thymus, 2 h, SD rats 6 μmol/kg iv, dosed compound",* 0.10 ± 0.07 μg/kg
same,tissue concentration,"Tissue distribution; thymus, 4 h, SD rats 6 μmol/kg iv, dosed compound",* 0.05 ± 0.01 μg/kg
same,tissue concentration,"Tissue distribution; thymus, 12 h, SD rats 6 μmol/kg iv, dosed compound",**** 0.06 ± 0.04 μg/kg
same,IC50,LN229,5.8 ± 2.2 nM
same,IC50,H520,2 ± 1.3 nM
same,polymerization kinetics,tubulin,43.7 ± 8.0 mOD/min
same,improvement in hemocompatibility over unmodified CTX,[2],64 fold
same,IC50,L-02,8.8 ± 3.6 nM
same,IC50,DU145,5.1 ± 1.4 nM
